Results: patent publication US20240124460A1, “METHODS AND COMPOSITIONS FOR TARGETED PROTEIN DEGRADATION” (Ranok Therapeutics (Hangzhou) Co. Ltd., priority 2020, published 2024)
Like-named read-outs stand apart in the source and are kept apart here.

How the values were obtained:
[1] = tested on: U-87 MG human glioblastoma; test: U87 MG CCK-8 proliferation assay; type: cell-based; conditions: U-87 MG cells, read-out: U87MG CCK-8
Method in brief: (§1)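 Cells cultured per ATCC recommendations and treated with 3-fold serial dilutions of compound from 20 μM to 1.02 nM. Viability by CCK-8 absorbance; % inhibition computed relative to DMSO-treated cells, with cell-free medium plus DMSO as blank.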

[2] = tested on: MV-4-11 human acute myeloid leukemia; test: MV-4-11 CCK-8 proliferation assay; type: cell-based; conditions: MV-4-11 cells, 72 hr
Method in brief: as §1

MAPK7 = MAPK7 (Homo sapiens, UniProt Q13164); test: MAPK7 kinase assay (ADP-Glo); type: biochemical; design: purchased Carna Biosciences #04-146; conditions: ATP 340 μM
MAPK7, sequence (Q13164 whole entry): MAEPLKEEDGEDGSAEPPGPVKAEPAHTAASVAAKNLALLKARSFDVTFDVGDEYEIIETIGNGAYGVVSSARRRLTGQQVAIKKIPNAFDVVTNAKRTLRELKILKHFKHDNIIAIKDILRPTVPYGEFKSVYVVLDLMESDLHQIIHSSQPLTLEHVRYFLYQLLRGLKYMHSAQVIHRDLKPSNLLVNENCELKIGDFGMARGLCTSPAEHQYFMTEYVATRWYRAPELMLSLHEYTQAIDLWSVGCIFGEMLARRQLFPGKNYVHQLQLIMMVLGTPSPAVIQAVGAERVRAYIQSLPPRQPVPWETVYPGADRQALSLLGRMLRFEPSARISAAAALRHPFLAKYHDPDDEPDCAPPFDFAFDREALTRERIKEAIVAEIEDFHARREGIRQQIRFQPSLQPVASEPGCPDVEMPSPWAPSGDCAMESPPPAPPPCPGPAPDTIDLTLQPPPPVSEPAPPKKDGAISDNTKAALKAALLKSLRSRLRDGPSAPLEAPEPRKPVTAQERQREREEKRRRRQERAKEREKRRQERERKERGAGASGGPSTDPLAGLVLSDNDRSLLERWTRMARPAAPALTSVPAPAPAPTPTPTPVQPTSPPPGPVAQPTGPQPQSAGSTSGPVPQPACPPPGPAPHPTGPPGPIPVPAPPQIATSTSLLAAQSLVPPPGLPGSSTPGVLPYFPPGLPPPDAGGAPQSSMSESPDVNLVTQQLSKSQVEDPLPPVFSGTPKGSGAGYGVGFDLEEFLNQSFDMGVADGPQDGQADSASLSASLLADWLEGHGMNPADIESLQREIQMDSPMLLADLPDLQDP
Experimental: The inhibition of MAPK7 kinase activity by test compounds was measured by the ADP-Glo Kinase Assay (Promega, #V6930), following the manufacturer's instructions, except as noted. 3-fold serial dilutions of each test compound were prepared ranging from 50 μM to 2.54 nM. Also, as a positive control, a 4-fold serial dilution of the MAPK7 inhibitor, XMD17-109 (MedChemExpress, #HY-15665) was prepared ranging from 10 μM to 0.04 nM. In brief, in 384-well plates, test compounds were added to the kinase reaction mix containing recombinant MAPK7 protein (Carna Biosciences, #04-146; 20 nM final concentration), myelin basic protein (SignalChem Biotech, #M42-54G; 0.1 mg/ml final concentration) and ATP (340 μM final concentration), then mixed by shaking and incubated with ADP-Glo Reagent and Kinase Detection Reagent. Luminescence was measured on a BioTek plate reader.
Lumpositive: The average ratio for 10 wells of positive controls (10 μM XMD17-109) across the plate.
Lumvehicle: The average ratio for 10 wells of negative controls (0.5% DMSO) across the plate.

ERBB2 = ERBB2 (HER2) flow cytometry protein degradation assay in BT-474 cells; type: cell-based, human; conditions: DC50, BT-474 cells, 24 hr
Method in brief: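 BT-474 cells trypsinised after compound treatment and stained with PE-conjugated anti-ERBB2 antibody, 30 min at 25° C in the dark, then fixed in 1% paraformaldehyde for flow cytometry. % inhibition = 100−(D−B)/(S−B)*100, using treated, untreated-stained and unstained cell fluorescence.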

HSP90α protein = molecular target: T1, HSP90α protein (Homo sapiens, UniProt P07900); test: HSP90α-binding FP (BODIPY) assay; conditions: FP competition with BODIPY-labeled RNK04010
T1 construct: purchased BPS Bioscience #50298
Method in brief: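 Fluorescence polarization measured competition with N-terminal human HSP90α, using either FITC-geldanamycin or BODIPY-labelled triazolone RNK04010 as tracer (5 nM final each). Compounds were tested in 2.5-fold dilutions from 20 μM to 5.2 nM, with incubation at 25 °C for 120 min (FITC) or 300 min (BODIPY).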

Row | Molecule | EC50 ([1]; 72 hr) | EC50 [2] | IC50 (MAPK7) | ERBB2 degradation (ERBB2) | IC50 (HSP90α protein) | EC50 ([1]; Homo sapiens, U-87 MG, 72 h) | EC50 ([2]; Homo sapiens, MV4-11)
1 | CCOc1cc(N2CCC(C(=O)N3CCC(N4CCN(Cc5ccc(-n6c(O)nnc6-c6cc(C(C)C)c(O)cc6O)cc5)CC4)CC3)CC2)ccc1Nc1ncc2c(n1)N(C)c1ccccc1C(=O)N2C.Cl [Compound 042, 2-((4-(4-(4-(4-(4-(3-(2,4-dihydroxy-5-isopropylphenyl)-5-hydroxy-4H-1,2,4-triazol-4-yl)benzyl)piperazin-1-yl)piperidine-1-carbonyl)piperidin-1-yl)-2-ethoxyphenyl)amino)-5,11-dimethyl-5H-benzo[e]pyrimido[5,4-b][1,4]diazepin-6(11H)-one] | < 0.1 µM | < 0.1 µM | > 1 µM | B (DC50 = 100-1000 nM) | < 0.1 µM |  | 
2 | CCOc1cc(N2CCC(C(=O)N3CCN(Cc4ccc(-n5c(O)nnc5-c5cc(C(C)C)c(O)cc5O)cc4)CC3)CC2)ccc1N(C)c1ncc2c(n1)N(C)c1ccccc1C(=O)N2C [Compound 047, 2-((4-(4-(4-(4-(3-(2,4-dihydroxy-5-isopropylphenyl)-5-hydroxy-4H-1,2,4-triazol-4-yl)benzyl)piperazine-1-carbonyl)piperidin-1-yl)-2-ethoxyphenyl)(methyl)amino)-5,11-dimethyl-5,11-dihydro-6H-benzo[e]pyrimido[5,4-b][1,4]diazepin-6-one] |  |  | > 1 µM | B (DC50 = 100-1000 nM) | 0.1 to 1 µM | 0.1 to 1 µM | < 0.1 µM
3 | CCNC(=O)c1nnc(-c2cc(CC)c(O)cc2O)n1-c1ccc(CN2CCN(CC3CCN(C(=O)C4CCN(c5ccc(Nc6ncc7c(n6)N(S(C)(=O)=O)c6ccccc6C(=O)N7C)c(OCC)c5)CC4)CC3)CC2)cc1.Cl [Compound 096, 4-(4-((4-((1-(1-(3-ethoxy-4-((5-methyl-11-(methylsulfonyl)-6-oxo-6,11-dihydro-5H-benzo[e]pyrimido[5,4-b][1,4]diazepin-2-yl)amino)phenyl)piperidine-4-carbonyl)piperidin-4-yl)methyl)piperazin-1-yl)methyl)phenyl)-N-ethyl-5-(5-ethyl-2,4-dihydroxyphenyl)-4H-1,2,4-triazole-3-carboxamide] |  |  | < 0.1 µM | B (DC50 = 100-1000 nM) | < 0.1 µM | < 0.1 µM | < 0.1 µM
4 | CCOc1cc(N2CCC(C(=O)N3CCC(COc4ccc(Nc5cc(-n6nc(C(F)(F)F)c7c6CC(C)(C)CC7=O)ccc5C(N)=O)cc4)CC3)CC2)ccc1Nc1ncc2c(n1)N(S(C)(=O)=O)c1ccccc1C(=O)N2C [Compound 110, 4-(6,6-dimethyl-4-oxo-3-(trifluoromethyl)-4,5,6,7-tetrahydro-1H-indazol-1-yl)-2-((4-((1-(1-(3-ethoxy-4-((5-methyl-11-(methylsulfonyl)-6-oxo-6,11-dihydro-5H-benzo[e]pyrimido[5,4-b][1,4]diazepin-2-yl)amino)phenyl)piperidine-4-carbonyl)piperidin-4-yl)methoxy)phenyl)amino)benzamide] |  |  | > 1 µM |  | > 1 µM | > 1 µM | > 1 µM
5 | CCOc1cc(N2CCC(C(=O)NCCOCCNC(=O)O[C@H]3CC[C@H](Nc4cc(-n5nc(C(F)(F)F)c6c5CC(C)(C)CC6=O)ccc4C#N)CC3)CC2)ccc1Nc1ncc2c(n1)N(S(C)(=O)=O)c1ccccc1C(=O)N2C [Compound 111, (1R,4R)-4-((2-((12-azanylidene)-l3-methyl)-5-(6,6-dimethyl-4-oxo-3-(trifluoromethyl)-4,5,6,7-tetrahydro-1H-indazol-1-yl)phenyl)amino)cyclohexyl (2-(2-(1-(3-ethoxy-4-((5-methyl-11-(methylsulfonyl)-6-oxo-6,11-dihydro-5H-benzo[e]pyrimido[5,4-b][1,4]diazepin-2-yl)amino)phenyl)piperidine-4-carboxamido)ethoxy)ethyl)carbamate] |  |  | > 1 µM |  | > 1 µM | > 1 µM | > 1 µM
6 | CCOc1cc(N2CCC(C(=O)N3CCC(CN4CCN(Cc5ccc(-n6c(O)nnc6-c6cc(C(C)C)c(O)cc6O)cc5)CC4)CC3)CC2)ccc1N(CC)c1ncc2c(n1)N(C)c1ccccc1C(=O)N2C [Compound 133, 2-((4-(4-(4-((4-(4-(3-(2,4-dihydroxy-5-isopropylphenyl)-5-hydroxy-4H-1,2,4-triazol-4-yl)benzyl)piperazin-1-yl)methyl)piperidine-1-carbonyl)piperidin-1-yl)-2-ethoxyphenyl)(ethyl)amino)-5,11-dimethyl-5,11-dihydro-6H-benzo[e]pyrimido[5,4-b][1,4]diazepin-6-one] |  |  | > 1 µM |  | < 0.1 µM | 0.1 to 1 µM | < 0.1 µM
7 | CCNC(=O)c1nnc(-c2cc(CC)c(O)cc2O)n1-c1ccc(CN2CCN(CC3CCN(C(=O)C4CCN(c5ccc(N(CC)c6ncc7c(n6)N(S(C)(=O)=O)c6ccccc6C(=O)N7C)c(OCC)c5)CC4)CC3)CC2)cc1 [Compound 135, 4-(4-((4-((1-(1-(3-ethoxy-4-(ethyl(5-methyl-11-(methylsulfonyl)-6-oxo-6,11-dihydro-5H-benzo[e]pyrimido[5,4-b][1,4]diazepin-2-yl)amino)phenyl)piperidine-4-carbonyl)piperidin-4-yl)methyl)piperazin-1-yl)methyl)phenyl)-N-ethyl-5-(5-ethyl-2,4-dihydroxyphenyl)-4H-1,2,4-triazole-3-carboxamide] |  |  | > 1 µM |  | < 0.1 µM | 0.1 to 1 µM | < 0.1 µM
8 | CCOc1cc(N2CCC(C(=O)N3CCC(CN4CCN(Cc5ccc(-n6c(C(=O)NC(C)C(F)(F)F)nnc6-c6cc(CC)c(O)cc6OC)cc5)CC4)CC3)CC2)ccc1Nc1ncc2c(n1)N(S(C)(=O)=O)c1ccccc1C(=O)N2C (stereo not shown) [Compound 142, 4-(4-((4-((1-(1-(3-ethoxy-4-((5-methyl-11-(methylsulfonyl)-6-oxo-6,11-dihydro-5H-benzo[e]pyrimido[5,4-b][1,4]diazepin-2-yl)amino)phenyl)piperidine-4-carbonyl)piperidin-4-yl)methyl)piperazin-1-yl)methyl)phenyl)-5-(5-ethyl-4-hydroxy-2-methoxyphenyl)-N-(1,1,1-trifluoropropan-2-yl)-4H-1,2,4-triazole-3-carboxamide] |  |  | 0.1 to 1 µM |  |  |  | 
9 | (1R,4R)-4-((2-((12-azanylidene)-l3-methyl)-5-(6,6-dimethyl-4-oxo-3-(trifluoromethyl)-4,5,6,7-tetrahydro-1H-indazol-1-yl)phenyl)amino)cyclohexyl (2-(2-(1-(3-ethoxy-4-(ethyl(5-methyl-11-(methylsulfonyl)-6-oxo-6,11-dihydro-5H-benzo[e]pyrimido[5,4-b][1,4]diazepin-2-yl)amino)phenyl)piperidine-4-carboxamido)ethoxy)ethyl)carbamate [Compound 113] | > 1 µM | > 1 µM | > 1 µM |  | > 1 µM |  | 
10 | (1R,4R)-4-((2-cyano-5-(6,6-dimethyl-4-oxo-3-(trifluoromethyl)-4,5,6,7-tetrahydro-1H-indazol-1-yl)phenyl)amino)cyclohexyl (2-(2-(1-(4-((5,11-dimethyl-6-oxo-6,11-dihydro-5H-benzo[e]pyrimido[5,4-b][1,4]diazepin-2-yl)amino)-3-ethoxyphenyl)piperidine-4-carboxamido)ethoxy)ethyl)carbamate [Compound 109] | > 1 µM | > 1 µM | > 1 µM |  | > 1 µM |  | 
